From the CheMixHub viscosity set

Experiment: xn = mol fraction of the nth substance listed

NCCN + O
Conditions | viscosity [mPa·s]
298.15 K, 101 kPa, x1 = 0.044 | 1.221
298.15 K, 101 kPa, x1 = 0.086 | 1.932
298.15 K, 101 kPa, x1 = 0.161 | 4.028
298.15 K, 101 kPa, x1 = 0.194 | 5.2
298.15 K, 101 kPa, x1 = 0.245 | 6.69
298.15 K, 101 kPa, x1 = 0.3 | 8.057
298.15 K, 101 kPa, x1 = 0.33 | 8.351
298.15 K, 101 kPa, x1 = 0.35 | 8.258
298.15 K, 101 kPa, x1 = 0.374 | 7.825
298.15 K, 101 kPa, x1 = 0.387 | 7.734
298.15 K, 101 kPa, x1 = 0.397 | 7.379
298.15 K, 101 kPa, x1 = 0.416 | 7.048
298.15 K, 101 kPa, x1 = 0.441 | 6.544
298.15 K, 101 kPa, x1 = 0.45 | 6.374
298.15 K, 101 kPa, x1 = 0.474 | 6.012
298.15 K, 101 kPa, x1 = 0.502 | 5.885
298.15 K, 101 kPa, x1 = 0.517 | 5.667
298.15 K, 101 kPa, x1 = 0.528 | 5.43
298.15 K, 101 kPa, x1 = 0.55 | 4.61
298.15 K, 101 kPa, x1 = 0.599 | 3.684
298.15 K, 101 kPa, x1 = 0.664 | 3.054
298.15 K, 101 kPa, x1 = 0.699 | 2.569
298.15 K, 101 kPa, x1 = 0.801 | 1.94
298.15 K, 101 kPa, x1 = 0.9 | 1.533
303.15 K, 101.3 kPa, x1 = 0.1138 | 2.607
303.15 K, 101.3 kPa, x1 = 0.2306 | 6.369
303.15 K, 101.3 kPa, x1 = 0.3102 | 7.766
303.15 K, 101.3 kPa, x1 = 0.4116 | 6.837
303.15 K, 101.3 kPa, x1 = 0.5452 | 4.416
303.15 K, 101.3 kPa, x1 = 0.6294 | 3.321
303.15 K, 101.3 kPa, x1 = 0.7296 | 2.434
303.15 K, 101.3 kPa, x1 = 0.8507 | 1.789
303.15 K, 101.33 kPa, x1 = 0.05 | 1.368
303.15 K, 101.33 kPa, x1 = 0.0999 | 2.291
303.15 K, 101.33 kPa, x1 = 0.15 | 3.635
303.15 K, 101.33 kPa, x1 = 0.1998 | 5.292
303.15 K, 101.33 kPa, x1 = 0.2488 | 6.797
303.15 K, 101.33 kPa, x1 = 0.2749 | 7.372
303.15 K, 101.33 kPa, x1 = 0.2997 | 7.678
303.15 K, 101.33 kPa, x1 = 0.3246 | 7.767
303.15 K, 101.33 kPa, x1 = 0.3488 | 7.67
303.15 K, 101.33 kPa, x1 = 0.3739 | 7.384
303.15 K, 101.33 kPa, x1 = 0.3944 | 7.02
303.15 K, 101.33 kPa, x1 = 0.4542 | 5.965
308.15 K, 101.3 kPa, x1 = 0.1138 | 2.203
308.15 K, 101.3 kPa, x1 = 0.2306 | 5.069
308.15 K, 101.3 kPa, x1 = 0.3102 | 6.072
308.15 K, 101.3 kPa, x1 = 0.4116 | 5.411
308.15 K, 101.3 kPa, x1 = 0.5452 | 3.639
308.15 K, 101.3 kPa, x1 = 0.6294 | 2.793
308.15 K, 101.3 kPa, x1 = 0.7296 | 2.01
308.15 K, 101.3 kPa, x1 = 0.8507 | 1.574
308.15 K, 101.33 kPa, x1 = 0.05 | 1.208
308.15 K, 101.33 kPa, x1 = 0.0999 | 1.971
308.15 K, 101.33 kPa, x1 = 0.15 | 3.059
308.15 K, 101.33 kPa, x1 = 0.1998 | 4.347
308.15 K, 101.33 kPa, x1 = 0.2488 | 5.484
308.15 K, 101.33 kPa, x1 = 0.2749 | 5.92
308.15 K, 101.33 kPa, x1 = 0.2997 | 6.133
308.15 K, 101.33 kPa, x1 = 0.3246 | 6.213
313.15 K, 101.3 kPa, x1 = 0.1138 | 1.911
313.15 K, 101.3 kPa, x1 = 0.2306 | 4.122
313.15 K, 101.3 kPa, x1 = 0.3102 | 4.906
313.15 K, 101.3 kPa, x1 = 0.4116 | 4.41
313.15 K, 101.3 kPa, x1 = 0.5452 | 3.07
313.15 K, 101.3 kPa, x1 = 0.6294 | 2.402
313.15 K, 101.3 kPa, x1 = 0.7296 | 1.842
313.15 K, 101.3 kPa, x1 = 0.8507 | 1.416
318.15 K, 101.3 kPa, x1 = 0.1138 | 1.652
318.15 K, 101.3 kPa, x1 = 0.2306 | 3.388
318.15 K, 101.3 kPa, x1 = 0.3102 | 3.963
318.15 K, 101.3 kPa, x1 = 0.4116 | 3.585
318.15 K, 101.3 kPa, x1 = 0.5452 | 2.574
318.15 K, 101.3 kPa, x1 = 0.6294 | 2.066
318.15 K, 101.3 kPa, x1 = 0.7296 | 1.613
318.15 K, 101.3 kPa, x1 = 0.8507 | 1.258
323.15 K, 101 kPa, x1 = 0.044 | 0.684
323.15 K, 101 kPa, x1 = 0.086 | 0.92
323.15 K, 101 kPa, x1 = 0.161 | 1.549
323.15 K, 101 kPa, x1 = 0.194 | 1.881
323.15 K, 101 kPa, x1 = 0.245 | 2.184
323.15 K, 101 kPa, x1 = 0.3 | 2.551
323.15 K, 101 kPa, x1 = 0.33 | 2.571
323.15 K, 101 kPa, x1 = 0.35 | 2.643
323.15 K, 101 kPa, x1 = 0.374 | 2.423
323.15 K, 101 kPa, x1 = 0.387 | 2.401
323.15 K, 101 kPa, x1 = 0.397 | 2.306
323.15 K, 101 kPa, x1 = 0.416 | 2.291
323.15 K, 101 kPa, x1 = 0.441 | 2.214
323.15 K, 101 kPa, x1 = 0.45 | 2.069
323.15 K, 101 kPa, x1 = 0.474 | 2.058
323.15 K, 101 kPa, x1 = 0.502 | 1.991
323.15 K, 101 kPa, x1 = 0.517 | 1.919
323.15 K, 101 kPa, x1 = 0.528 | 1.907
323.15 K, 101 kPa, x1 = 0.55 | 1.733
323.15 K, 101 kPa, x1 = 0.599 | 1.539
323.15 K, 101 kPa, x1 = 0.664 | 1.32
323.15 K, 101 kPa, x1 = 0.699 | 1.174
323.15 K, 101 kPa, x1 = 0.801 | 0.978
323.15 K, 101 kPa, x1 = 0.9 | 0.847

NCCN + OCCCCO
viscosity [mPa·s], 101 kPa
Conditions | 293.15 K | 298.15 K | 303.15 K | 308.15 K | 313.15 K | 318.15 K
x1 = 0.0733 | 100 | 74.8 | 55.2 | 43.2 | 33.4 | –
x1 = 0.1427 | 101 | 75.2 | 55.3 | 44.5 | 33.8 | –
x1 = 0.2094 | 98.8 | 72.8 | 53.1 | 42.5 | 32 | 28.8
x1 = 0.2728 | 92.3 | 67.6 | 49.1 | 39.1 | 29.5 | 25.8
x1 = 0.3334 | 82.3 | 60.1 | 43.5 | 34.4 | 25.7 | 22.6
x1 = 0.3913 | 69.3 | 50.5 | 36.8 | 29.2 | 22 | 19.3
x1 = 0.4467 | 55.9 | 40.8 | 29.9 | 23.7 | 18.2 | 16.1
x1 = 0.4999 | 42.7 | 31.5 | 23.4 | 19 | 14.5 | 12.9
x1 = 0.551 | 32.1 | 23.8 | 18 | 14.6 | 11.3 | 10.3
x1 = 0.5999 | 23.8 | 17.9 | 13.7 | 11.3 | 8.84 | 8.14
x1 = 0.6469 | 17.4 | 13.2 | 10.2 | 8.63 | 7.05 | 6.33
x1 = 0.6921 | 12.7 | 9.92 | 7.8 | 6.62 | 5.34 | 4.99
x1 = 0.7358 | 9.34 | 7.44 | 5.91 | 5.11 | 4.17 | 3.95
x1 = 0.7777 | 7.02 | 5.61 | 4.57 | 4 | 3.28 | 3.13
x1 = 0.8181 | 5.28 | 4.3 | 3.53 | 3.15 | 2.61 | 2.51
x1 = 0.8572 | 4.06 | 3.38 | 2.78 | 2.5 | 2.1 | 2.02
x1 = 0.9311 | 2.51 | 2.11 | 1.78 | 1.63 | 1.41 | 1.37
